System: human ventricular trabeculae
Test: Action potential recording and pro-arrhythmic score analysis in human ventricular trabeculae (hVT);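 further: sharp microelectrode action potential recordings at 37°C in Tyrode-perfused trabeculae, 4 cumulative concentrations each applied 31 min, values averaged over last 30 APs, vehicle 0.1% DMSO as control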
Conditions: 1Hz; for Beat Escape (raw data) / EADs (raw data) / Refractoriness Escape (raw data): n=4 trabeculae

Nc1nnc(-c2cccc(Cl)c2Cl)c(N)n1 [LAMOTRIGINE, Lamotrigine]
AMAX (average raw data) (0.6-FOLD free ETPC (17µM)): 101
AMAX percentage change compared to vehicle control (0.6-FOLD free ETPC (17µM)): -5%
APD30 (average raw data) (0.6-FOLD free ETPC (17µM)): 147
APD30 percentage change compared to vehicle control (0.6-FOLD free ETPC (17µM)): -2%
APD50 (average raw data) (0.6-FOLD free ETPC (17µM)): 197
APD50 percentage change compared to vehicle control (0.6-FOLD free ETPC (17µM)): 0%
APD90 (average raw data) (0.6-FOLD free ETPC (17µM)): 282
APD90 percentage change compared to vehicle control (0.6-FOLD free ETPC (17µM)): 1%
Alternans (average raw data) (0.6-FOLD free ETPC (17µM)): 0.88
Alternans percentage change compared to vehicle control (0.6-FOLD free ETPC (17µM)): -35%
Beat Escape percentage change compared to vehicle control (0.6-FOLD free ETPC (17µM)): 0%
EADs percentage change compared to vehicle control (0.6-FOLD free ETPC (17µM)): 0%
ERP (average raw data) (0.6-FOLD free ETPC (17µM)): 0.44
ERP percentage change compared to vehicle control (0.6-FOLD free ETPC (17µM)): 4%
Max Dispersion (average raw data) (0.6-FOLD free ETPC (17µM)): 4.42
Max Dispersion percentage change compared to vehicle control (0.6-FOLD free ETPC (17µM)): -5%
RMP (average raw data) (0.6-FOLD free ETPC (17µM)): -83
RMP percentage change compared to vehicle control (0.6-FOLD free ETPC (17µM)): -3%
Refractoriness Escape percentage change compared to vehicle control (0.6-FOLD free ETPC (17µM)): 0%
STV (average raw data) (0.6-FOLD free ETPC (17µM)): 0.60
STV percentage change compared to vehicle control (0.6-FOLD free ETPC (17µM)): -26%
Triangulation (average raw data) (0.6-FOLD free ETPC (17µM)): 136
Triangulation percentage change compared to vehicle control (0.6-FOLD free ETPC (17µM)): 3%
Beat Escape (raw data) (0.6-FOLD free ETPC (17µM)): 0
EADs (raw data) (0.6-FOLD free ETPC (17µM)): 0
Refractoriness Escape (raw data) (0.6-FOLD free ETPC (17µM)): 0
AMAX (average raw data) (6-FOLD free ETPC (17µM)): 106
AMAX percentage change compared to vehicle control (6-FOLD free ETPC (17µM)): -1%
APD30 (average raw data) (6-FOLD free ETPC (17µM)): 128
APD30 percentage change compared to vehicle control (6-FOLD free ETPC (17µM)): -15%
APD50 (average raw data) (6-FOLD free ETPC (17µM)): 169
APD50 percentage change compared to vehicle control (6-FOLD free ETPC (17µM)): -14%
APD90 (average raw data) (6-FOLD free ETPC (17µM)): 249
APD90 percentage change compared to vehicle control (6-FOLD free ETPC (17µM)): -11%
Alternans (average raw data) (6-FOLD free ETPC (17µM)): 1.29
Alternans percentage change compared to vehicle control (6-FOLD free ETPC (17µM)): -5%
Beat Escape percentage change compared to vehicle control (6-FOLD free ETPC (17µM)): 0%
EADs percentage change compared to vehicle control (6-FOLD free ETPC (17µM)): 0%
ERP (average raw data) (6-FOLD free ETPC (17µM)): 0.41
ERP percentage change compared to vehicle control (6-FOLD free ETPC (17µM)): -3%
Max Dispersion (average raw data) (6-FOLD free ETPC (17µM)): 5.13
Max Dispersion percentage change compared to vehicle control (6-FOLD free ETPC (17µM)): 10%
RMP (average raw data) (6-FOLD free ETPC (17µM)): -87
RMP percentage change compared to vehicle control (6-FOLD free ETPC (17µM)): 2%
Refractoriness Escape percentage change compared to vehicle control (6-FOLD free ETPC (17µM)): 0%
STV (average raw data) (6-FOLD free ETPC (17µM)): 0.81
STV percentage change compared to vehicle control (6-FOLD free ETPC (17µM)): 302%
Triangulation (average raw data) (6-FOLD free ETPC (17µM)): 121
Triangulation percentage change compared to vehicle control (6-FOLD free ETPC (17µM)): -8%
Beat Escape (raw data) (6-FOLD free ETPC (17µM)): 0
EADs (raw data) (6-FOLD free ETPC (17µM)): 0
Refractoriness Escape (raw data) (6-FOLD free ETPC (17µM)): 0
AMAX (average raw data) (18-FOLD free ETPC (17µM)): 97
AMAX percentage change compared to vehicle control (18-FOLD free ETPC (17µM)): -9%
APD30 (average raw data) (18-FOLD free ETPC (17µM)): 115
APD30 percentage change compared to vehicle control (18-FOLD free ETPC (17µM)): -23%
APD50 (average raw data) (18-FOLD free ETPC (17µM)): 152
APD50 percentage change compared to vehicle control (18-FOLD free ETPC (17µM)): -23%
APD90 (average raw data) (18-FOLD free ETPC (17µM)): 244
APD90 percentage change compared to vehicle control (18-FOLD free ETPC (17µM)): -13%
Alternans (average raw data) (18-FOLD free ETPC (17µM)): 7.23
Alternans percentage change compared to vehicle control (18-FOLD free ETPC (17µM)): 435%
Beat Escape percentage change compared to vehicle control (18-FOLD free ETPC (17µM)): 25%
EADs percentage change compared to vehicle control (18-FOLD free ETPC (17µM)): 0%
ERP (average raw data) (18-FOLD free ETPC (17µM)): 0.39
ERP percentage change compared to vehicle control (18-FOLD free ETPC (17µM)): -7%
Max Dispersion (average raw data) (18-FOLD free ETPC (17µM)): 10.63
Max Dispersion percentage change compared to vehicle control (18-FOLD free ETPC (17µM)): 127%
RMP (average raw data) (18-FOLD free ETPC (17µM)): -90
RMP percentage change compared to vehicle control (18-FOLD free ETPC (17µM)): 5%
Refractoriness Escape percentage change compared to vehicle control (18-FOLD free ETPC (17µM)): 0%
STV (average raw data) (18-FOLD free ETPC (17µM)): 5.08
STV percentage change compared to vehicle control (18-FOLD free ETPC (17µM)): 477%
Triangulation (average raw data) (18-FOLD free ETPC (17µM)): 130
Triangulation percentage change compared to vehicle control (18-FOLD free ETPC (17µM)): -2%
Beat Escape (raw data) (18-FOLD free ETPC (17µM)): 1
EADs (raw data) (18-FOLD free ETPC (17µM)): 0
Refractoriness Escape (raw data) (18-FOLD free ETPC (17µM)): 0
AMAX (average raw data) (59-FOLD free ETPC (17µM)): 39
AMAX percentage change compared to vehicle control (59-FOLD free ETPC (17µM)): -63%
APD30 (average raw data) (59-FOLD free ETPC (17µM)): 48
APD30 percentage change compared to vehicle control (59-FOLD free ETPC (17µM)): -69%
APD50 (average raw data) (59-FOLD free ETPC (17µM)): 66
APD50 percentage change compared to vehicle control (59-FOLD free ETPC (17µM)): -67%
APD90 (average raw data) (59-FOLD free ETPC (17µM)): 169
APD90 percentage change compared to vehicle control (59-FOLD free ETPC (17µM)): -38%
Alternans (average raw data) (59-FOLD free ETPC (17µM)): 6.14
Alternans percentage change compared to vehicle control (59-FOLD free ETPC (17µM)): 354%
Beat Escape percentage change compared to vehicle control (59-FOLD free ETPC (17µM)): 100%
EADs percentage change compared to vehicle control (59-FOLD free ETPC (17µM)): 0%
ERP (average raw data) (59-FOLD free ETPC (17µM)): 0.38
ERP percentage change compared to vehicle control (59-FOLD free ETPC (17µM)): -10%
Max Dispersion (average raw data) (59-FOLD free ETPC (17µM)): 28.20
Max Dispersion percentage change compared to vehicle control (59-FOLD free ETPC (17µM)): 503%
RMP (average raw data) (59-FOLD free ETPC (17µM)): -74
RMP percentage change compared to vehicle control (59-FOLD free ETPC (17µM)): -9%
Refractoriness Escape percentage change compared to vehicle control (59-FOLD free ETPC (17µM)): 0%
STV (average raw data) (59-FOLD free ETPC (17µM)): 3.94
STV percentage change compared to vehicle control (59-FOLD free ETPC (17µM)): 2736%
Triangulation (average raw data) (59-FOLD free ETPC (17µM)): 121
Triangulation percentage change compared to vehicle control (59-FOLD free ETPC (17µM)): 1%
Beat Escape (raw data) (59-FOLD free ETPC (17µM)): 4
EADs (raw data) (59-FOLD free ETPC (17µM)): 0

Reference: paper PMC5760531, “Action Potential Recording and Pro-arrhythmia Risk Analysis in Human Ventricular Trabeculae” (Frontiers in Physiology, 2018)
